# Data reported in patent US20130102595A1 (Curis, Inc., priority 2011, published 2013).
# Tests used:
# [1] = system: HDACs (HeLa cell nuclear extracts); test: HDAC enzymatic activity, Biomol Color de Lys system; type: biochemical; conditions: 1 hour, 25° C.
# How it was run: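 HeLa nuclear extract incubated with serially diluted compound and […] artificial substrate in 50 mM Tris/Cl pH 8.0, 137 mM NaCl, 2.7 mM KCl, 1 mM MgCl2. Run 1 h at 25 °C, stopped with developer. Fluorescence read (ex 350-380, em 440-460 nm); IC50 from sigmoidal dose-response fit.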
# PI3Kα (p110α/p85α) = target: T1, PI3Kα (p110α/p85α) (Homo sapiens, UniProt P42336); test: PI3Kα ADP-Glo assay; type: biochemical; conditions: 20 μM PIP2, 10 μM ATP, 30 minutes
# T1 construct: GST (N); made in house; host or cells: Baculovirus-infected Sf9 cells
# T1 sequence (P42336 whole entry): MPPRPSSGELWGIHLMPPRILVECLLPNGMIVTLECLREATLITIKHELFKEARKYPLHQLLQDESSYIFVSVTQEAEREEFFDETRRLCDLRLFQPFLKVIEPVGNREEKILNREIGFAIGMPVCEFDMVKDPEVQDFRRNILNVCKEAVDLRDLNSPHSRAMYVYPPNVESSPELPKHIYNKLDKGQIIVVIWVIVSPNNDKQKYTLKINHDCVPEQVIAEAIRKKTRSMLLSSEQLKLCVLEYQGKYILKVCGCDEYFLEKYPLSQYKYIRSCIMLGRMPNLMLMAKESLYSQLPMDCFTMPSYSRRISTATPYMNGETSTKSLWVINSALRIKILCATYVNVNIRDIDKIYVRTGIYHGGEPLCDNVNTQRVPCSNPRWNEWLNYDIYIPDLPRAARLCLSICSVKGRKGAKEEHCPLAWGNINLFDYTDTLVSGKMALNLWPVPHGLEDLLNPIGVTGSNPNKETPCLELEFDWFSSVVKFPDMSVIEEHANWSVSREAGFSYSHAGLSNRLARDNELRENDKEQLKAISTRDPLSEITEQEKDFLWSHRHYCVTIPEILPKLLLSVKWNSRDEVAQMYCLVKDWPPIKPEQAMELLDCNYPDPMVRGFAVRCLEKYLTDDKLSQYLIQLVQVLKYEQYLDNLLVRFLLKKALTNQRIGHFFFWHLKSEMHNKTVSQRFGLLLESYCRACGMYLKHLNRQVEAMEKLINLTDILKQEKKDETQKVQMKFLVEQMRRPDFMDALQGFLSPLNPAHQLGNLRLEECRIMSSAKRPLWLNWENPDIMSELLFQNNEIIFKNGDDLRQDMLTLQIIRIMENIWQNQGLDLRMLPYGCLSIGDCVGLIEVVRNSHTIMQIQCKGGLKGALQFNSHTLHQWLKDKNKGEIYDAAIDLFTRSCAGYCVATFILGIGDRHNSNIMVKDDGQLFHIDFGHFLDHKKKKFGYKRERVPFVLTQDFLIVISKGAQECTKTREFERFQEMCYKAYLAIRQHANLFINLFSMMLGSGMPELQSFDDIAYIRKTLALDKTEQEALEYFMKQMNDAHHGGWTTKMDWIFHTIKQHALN
# T1 sequence (P27986 whole entry partner): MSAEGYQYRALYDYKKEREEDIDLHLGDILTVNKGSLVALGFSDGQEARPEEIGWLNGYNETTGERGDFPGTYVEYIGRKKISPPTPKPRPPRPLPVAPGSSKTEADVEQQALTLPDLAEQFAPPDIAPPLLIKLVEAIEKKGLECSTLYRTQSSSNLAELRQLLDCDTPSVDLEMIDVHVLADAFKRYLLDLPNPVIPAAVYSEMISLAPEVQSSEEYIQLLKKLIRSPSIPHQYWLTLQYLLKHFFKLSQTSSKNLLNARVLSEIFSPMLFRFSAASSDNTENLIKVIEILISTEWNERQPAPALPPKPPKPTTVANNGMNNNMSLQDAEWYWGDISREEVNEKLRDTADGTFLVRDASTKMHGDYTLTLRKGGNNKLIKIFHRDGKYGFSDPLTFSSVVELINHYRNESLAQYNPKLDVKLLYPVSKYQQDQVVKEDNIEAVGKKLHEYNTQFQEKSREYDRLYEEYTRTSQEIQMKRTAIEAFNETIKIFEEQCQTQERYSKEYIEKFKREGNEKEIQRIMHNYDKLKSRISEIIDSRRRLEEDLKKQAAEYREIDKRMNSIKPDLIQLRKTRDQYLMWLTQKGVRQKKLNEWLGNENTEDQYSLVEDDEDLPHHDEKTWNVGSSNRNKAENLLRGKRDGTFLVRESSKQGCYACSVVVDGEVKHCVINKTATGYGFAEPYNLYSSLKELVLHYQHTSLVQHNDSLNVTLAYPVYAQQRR
# How it was run: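 Recombinant full-length human GST-p110α/His-p85α, co-expressed in Sf9 cells, was incubated 30 min at room temperature with 20 μM PIP2 and 10 μM ATP. The buffer was 50 mM HEPES pH 7.4, 150 mM NaCl, 5 mM MgCl2, 1 mM DTT, 3 µM orthovanadate and 0.5% DMSO. ADP formed was detected by ADP-Glo luminescence.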
IC50 [1],IC50 (PI3Kα (p110α/p85α)),melting point,SMILES
< 100 nM,< 100 nM,200 to 205 °C,"CNc1ccc(-c2nc(N3CCOCC3)c3sc(C(C)(C)Nc4ncc(C(=O)NO)cn4)cc3n2)cn1 [Compound 240, N-Hydroxy-2-(2-(2-(6-(methylamino)pyridin-3-yl)-4-morpholinothieno[3,2-d]pyrimidin-6-yl)propan-2-ylamino)pyrimidine-5-carboxamide]"
< 100 nM,1000 to 10000 nM,175 to 178 °C,"COc1ccc(-c2nc(N3CCOCC3)c3sc(C(C)(C)N(C)c4ncc(C(=O)NO)cn4)cc3n2)cn1 [Compound 251, N-Hydroxy-2-((2-(2-(6-methoxypyridin-3-yl)-4-morpholinothieno[3,2-d]pyrimidin-6-yl)propan-2-yl)(methyl)amino)pyrimidine-5-carboxamide]"
< 100 nM,< 100 nM,259 to 265 °C,"COc1ccc(-c2nc(N3CCOCC3)c3sc(S(=O)(=O)Nc4ncc(C(=O)NO)cn4)cc3n2)cn1 [Compound 252, 2-[2-(6-Methoxy-pyridin-3-yl)-4-morpholin-4-yl-thieno[3,2-d]pyrimidine-6-sulfonylamino]-pyrimidine-5-carboxylic acid hydroxyamide]"
< 100 nM,< 100 nM,162 to 165 °C,"CCOc1ccc(-c2nc(N3CCOCC3)c3sc(CN(C)c4ncc(C(=O)NO)cn4)cc3n2)cn1 [Compound 255, 2-(((2-(6-ethoxypyridin-3-yl)-4-morpholinothieno[3,2-d]pyrimidin-6-yl)methyl)(methyl)amino)-N-hydroxypyrimidine-5-carboxamide]"
< 100 nM,> 10000 nM,140 to 143 °C,"CN(C)CCOc1ccc(-c2nc(N3CCOCC3)c3sc(CN(C)c4ncc(C(=O)NO)cn4)cc3n2)cn1 [Compound 257, 2-(((2-(6-(2-(Dimethylamino)ethoxy)pyridin-3-yl)-4-morpholinothieno[3,2-d]pyrimidin-6-yl)methyl)(methyl)amino)-N-hydroxypyrimidine-5-carboxamide]"
< 100 nM,> 10000 nM,170 to 175 °C,"CNCCOc1ccc(-c2nc(N3CCOCC3)c3sc(CN(C)c4ncc(C(=O)NO)cn4)cc3n2)cn1 [Compound 258, N-Hydroxy-2-(methyl((2-(6-(2-(methylamino)ethoxy)pyridin-3-yl)-4-morpholinothieno[3,2-d]pyrimidin-6-yl)methyl)amino)pyrimidine-5-carboxamide]"
< 100 nM,> 10000 nM,110 to 115 °C,"CN(Cc1cc2nc(-c3ccc(OCCN)nc3)nc(N3CCOCC3)c2s1)c1ncc(C(=O)NO)cn1 [Compound 259, 2-(((2-(6-(2-Aminoethoxy)pyridin-3-yl)-4-morpholinothieno[3,2-d]pyrimidin-6-yl)methyl)(methyl)amino)-N-hydroxypyrimidine-5-carboxamide]"
< 100 nM,< 100 nM,210 to 215 °C,"COc1ncc(-c2nc(N3CCOCC3)c3sc(C(C)N(C)c4ncc(C(=O)NO)cn4)cc3n2)cn1 (stereo not drawn) [Compound 262, N-Hydroxy-2-((1-(2-(2-methoxypyrimidin-5-yl)-4-morpholinothieno[3,2-d]pyrimidin-6-yl)ethyl)(methyl)amino)pyrimidine-5-carboxamide]"
< 100 nM,< 100 nM,202 to 207 °C,"COc1ncc(-c2nc(N3CCOCC3)c3sc(C(C)(C)Nc4ncc(C(=O)NO)cn4)cc3n2)cn1 [Compound 263, N-Hydroxy-2-(2-(2-(2-methoxypyrimidin-5-yl)-4-morpholinothieno[3,2-d]pyrimidin-6-yl)propan-2-ylamino)pyrimidine-5-carboxamide]"
< 100 nM,< 100 nM,197 to 205 °C,"Nc1ccc(-c2nc(N3CCOCC3)c3sc(S(=O)(=O)Nc4ncc(C(=O)NO)cn4)cc3n2)cc1 [Compound 271, 2-[2-(4-Amino-phenyl)-4-morpholin-4-yl-thieno[3,2-d]pyrimidine-6-sulfonylamino]-pyrimidine-5-carboxylic acid hydroxyamide]"
< 100 nM,100 to 1000 nM,241 to 246 °C,"CN(Cc1cc2nc(-c3ccc(N)c(Cl)c3)nc(N3CCOCC3)c2s1)c1ncc(C(=O)NO)cn1 [Compound 275, 2-(((2-(4-Amino-3-chlorophenyl)-4-morpholinothieno[3,2-d]pyrimidin-6-yl)methyl)(methyl)amino)-N-hydroxypyrimidine-5-carboxamide]"
< 100 nM,< 100 nM,203 to 206 °C,"CN(Cc1cc2nc(-c3ccc(N)c(F)c3)nc(N3CCOCC3)c2s1)c1ncc(C(=O)NO)cn1 [Compound 276, 2-(((2-(4-Amino-3-fluorophenyl)-4-morpholinothieno[3,2-d]pyrimidin-6-yl)methyl)(methyl)amino)-N-hydroxypyrimidine-5-carboxamide]"
< 100 nM,< 100 nM,202 to 206 °C,"CN(Cc1cc2nc(-c3ccc(N)c([N+](=O)[O-])c3)nc(N3CCOCC3)c2s1)c1ncc(C(=O)NO)cn1 [Compound 278, 2-(((2-(4-Amino-3-nitrophenyl)-4-morpholinothieno[3,2-d]pyrimidin-6-yl)methyl)(methyl)amino)-N-hydroxypyrimidine-5-carboxamide]"
< 100 nM,< 100 nM,214 to 218 °C,"CN(Cc1cc2nc(-c3ccc(N)c(O)c3)nc(N3CCOCC3)c2s1)c1ncc(C(=O)NO)cn1 [Compound 279, 2-(((2-(4-Amino-3-hydroxyphenyl)-4-morpholinothieno[3,2-d]pyrimidin-6-yl)methyl)(methyl)amino)-N-hydroxypyrimidine-5-carboxamide]"
< 100 nM,100 to 1000 nM,237 to 240 °C,"CN(Cc1cc2nc(-c3ccc(N)c(C#N)c3)nc(N3CCOCC3)c2s1)c1ncc(C(=O)NO)cn1 [Compound 280, 2-(((2-(4-Amino-3-cyanophenyl)-4-morpholinothieno[3,2-d]pyrimidin-6-yl)methyl)(methyl)amino)-N-hydroxypyrimidine-5-carboxamide]"
< 100 nM,100 to 1000 nM,156 to 158 °C,"CC(=O)c1cc(-c2nc(N3CCOCC3)c3sc(CN(C)c4ncc(C(=O)NO)cn4)cc3n2)ccc1N [Compound 281, 2-{[2-(3-Acetyl-4-amino-phenyl)-4-morpholin-4-yl-thieno[3,2-d]pyrimidin-6-ylmethyl]-methyl-amino}-pyrimidine-5-carboxylic acid hydroxyamide]"
< 100 nM,100 to 1000 nM,190 to 193 °C,"CN(Cc1cc2nc(-c3cc(F)c(N)c(F)c3)nc(N3CCOCC3)c2s1)c1ncc(C(=O)NO)cn1 [Compound 282, 2-(((2-(4-Amino-3,5-difluorophenyl)-4-morpholinothieno[3,2-d]pyrimidin-6-yl)methyl)(methyl)amino)-N-hydroxypyrimidine-5-carboxamide]"
< 100 nM,100 to 1000 nM,195 to 197 °C,"CN(Cc1cc2nc(-c3ccc(N)cc3F)nc(N3CCOCC3)c2s1)c1ncc(C(=O)NO)cn1 [Compound 283, 2-{[2-(4-Amino-2-fluoro-phenyl)-4-morpholin-4-yl-thieno[3,2-d]pyrimidin-6-ylmethyl]-methyl-amino}-pyrimidine-5-carboxylic acid hydroxyamide]"
< 100 nM,100 to 1000 nM,188 to 192 °C,"CN(Cc1cc2nc(-c3cccc(SCCO)c3)nc(N3CCOCC3)c2s1)c1ncc(C(=O)NO)cn1 [Compound 290, N-Hydroxy-2-(((2-(3-(2-hydroxyethylthio)phenyl)-4-morpholinothieno[3,2-d]pyrimidin-6-yl)methyl)(methyl)amino)pyrimidine-5-carboxamide]"
< 100 nM,100 to 1000 nM,230 to 235 °C,"CC(O)c1ccc(F)c(-c2nc(N3CCOCC3)c3sc(CN(C)c4ncc(C(=O)NO)cn4)cc3n2)c1 (stereo not drawn) [Compound 295, 2-(((2-(2-Fluoro-5-(1-hydroxyethyl)phenyl)-4-morpholinothieno[3,2-d]pyrimidin-6-yl)methyl)(methyl)amino)-N-hydroxypyrimidine-5-carboxamide]"
< 100 nM,100 to 1000 nM,232 to 238 °C,"Nc1ccc(-c2nc(N3CCOCC3)c3sc(C(=O)NCC4CCN(c5ncc(C(=O)NO)cn5)CC4)cc3n2)cc1 [Compound 307, 2-(4-Aminophenyl)-N-((1-(5-(hydroxycarbamoyl)pyrimidin-2-yl)piperidin-4-yl)methyl)-4-morpholinothieno[3,2-d]pyrimidine-6-carboxamide]"
< 100 nM,< 100 nM,190 to 197 °C,"CNc1ccc(-c2nc(N3CCOCC3)c3sc(S(=O)(=O)NCC4CCN(c5ncc(C(=O)NO)cn5)CC4)cc3n2)cn1 [Compound 310, N-Hydroxy-2-(4-((2-(6-(methylamino)pyridin-3-yl)-4-morpholinothieno[3,2-d]pyrimidine-6-sulfonamido)methyl)piperidin-1-yl)pyrimidine-5-carboxamide]"
100 to 1000 nM,100 to 1000 nM,140 to 144 °C,"CS(=O)(=O)N1CCN(Cc2cc3nc(-c4ccc(OCCCCC(=O)NO)cc4)nc(N4CCOCC4)c3s2)CC1 [Compound 319, N-Hydroxy-5-(4-(6-((4-(methylsulfonyl)piperazin-1-yl)methyl)-4-morpholinothieno[3,2-d]pyrimidin-2-yl)phenoxy)pentanamide]"
